Experimental data reported in patent US10588935B2, “FC receptor (FcRn) binding peptides and uses thereof” (THE BRIGHAM AND WOMEN'S HOSPITAL, INC., priority 2013, dated 2020).
“Also recorded” adds a separate entry of the source. Bridge positions count the residues as written; N and C are the ends. Peptide text beside a SMILES is read from it.

How the values were obtained:
shFcRn binding to HSA = shFcRn binding to HSA (Homo sapiens, UniProt P55899); assay: SPR screening of FcRn binding peptides for inhibition of shFcRn binding to immobilized HSA; details: 14 uM peptide, 5 uM shFcRn, pH 6
Experimental: Unreacted sites were then capped by injecting a solution of ethanolamine over the chip surface. A reference flow cell was activated with EDC/NHS and then blocked with ethanolamine.
Samples were injected over the chip for 3 minutes at 20 uL/min followed by a 2.5 minute dissociation phase.

FcRn [1] = target: T1, FcRn (Homo sapiens, UniProt P55899); assay: Competition for albumin or IgG binding to FcRn; set-up: Soluble human FcRn was expressed and purified by Biogen-Idec as previously described (29)
Description: Peptide phage libraries, obtained from Dyax Corp, were screened against biotinylated soluble human FcRn bound to streptavidin beads, using 3 rounds of sequential pH 6.0 binding and pH 7.5 elution/amplification protocols. […] Peptide SYN514 was utilized during a 2nd peptide phage screen to occupy this site on FcRn prior to the addition of the phage libraries, and to identify albumin-competitive sequences. This strategy uncovered the albumin-competitive peptide, SYN571, and through structure-activity relationships, the shorter sequence SYN1753 (Ac-[…]-CONH2 (SEQ ID NO: 1) (disulfide) which bound to shFcRn with equivalent affinity as determined by SPR.

FcRn [2] = target: T1, FcRn; details: Mezo, PNAS, 2007; cited from earlier work
[3] = tested on: MDCK II cells expressing hFcRn and hβ2m; assay: FcRn dependent albumin transcytosis bioassay; format: cell-based, canine; details: input chamber pH 6.0, exit pH 7.4, 2 hours, compared to scrambled peptide or isotype control
Experimental: Albumin transcytosis assays were performed as previously described for IgG. In brief, MDCK II cells expressing hβ2m and hFcRn were grown to confluence on transwells (Costar) and allowed to polarize over 4 days. 12 hours before the transcytosis experiment, the medium was changed to serum-free media without antibiotics. On the day of experiment, the transwells were incubated with HBSS pH 7.4 for 20 minutes before placing on a new 12 well plate (Costar) where the input chamber contains HBSS pH 6.0 and the exit chamber contains HBSS pH 7.4 and pH adjusted albumin was added to the input chamber afterwards. For blocking albumin transcytosis with the peptide inhibitors SYN1753 and SYN3258, transwells were pre-incubated for 20 min with the respective peptides in HBSS pH 6.0 prior to the addition of albumin in the continued presence of the peptides. After incubating for 2 hours in 37° C. and 5% CO2, the medium at the opposite chamber were harvested and the albumin concentration was measured using ELISA method. For the recycling assay, the transwells were washed with HBSS pH 7.4 for 5 minutes before placing on a new 12-well plate with HBSS pH 6.0 at both chambers. After equilibration at 37° C. and 5% CO2, pH adjusted albumin human albumin was added and allowed to incubate for one hour. The transwells were then washed at HBSS pH 6.0 before placing in a new 12-well plate with HBSS pH 7.4 at both chambers. After one hour incubation, medium from the input chamber was removed and the albumin concentration was measured by ELISA. For the human albumin secretion assay the medium was changed to serum- and antibiotic-free media on the day of the experiment. 50 μL of the medium from both chambers were removed periodically over 24 hours, and the human albumin concentration was measured using ELISA with volume reduction adjustment.

[4] = tested on: hFCGRT^Tg/hB2m^Tg/mFcgrt^−/− mice; assay: In vivo acetaminophen toxicity with blockade of FcRn-albumin interaction; set-up: species or system mouse; details: 40 mg/kg body weight per day via i.p. osmotic pump; vs control peptide
Experimental: In vivo acetaminophen toxicity experiments: Acetaminophen (Sigma-Aldrich) was diluted in PBS at a concentration of 33.3 mg/ml. […] In blocking experiments using antibody administration, ADM31 or isotype control were administered 14 h prior to the injection of APAP. For blocking the interaction between FcRn and albumin via peptide, a cyclic control peptide for SYN3258 was designed in which three key residues per monomer that were identified by alanine screening to be critical for binding between FcRn and albumin were mutated to alanines (W7A, W11A, […]). SYN3258 or the control peptide were then continuously administered at a dose of 40 mg/kg body weight per day via i.p. osmotic pumps (Alzet, Cupertino, Cat. No 1003D) over a 72 hour period. Prior to the surgical implantation of the pumps, mice were anaesthetized with Buprenex (0.1 mg/kg body weight) s.c. and Ketamine HCl (100 mg/kg)/Xylazine (10 mg/kg) i.p. Hair on the incision site was clipped and the implantation area was disinfected by 5% iodine in 70% isopropanol. Antibiotics (100 μg/ml of gentamycin) were sprayed on the area of incision to prevent infection, and skin was sutured using polypropylene suture. Total duration of the surgical procedure was around 5 minutes per mouse. 18-20 hours after pump implantation, a lethal dose of acetaminophen was administered i.p.

soluble human FcRn = target: T2, soluble human FcRn (Homo sapiens, UniProt P55899); assay: SPR (Biacore) affinity of peptides for immobilized soluble human FcRn; format: binding; details: pH 6.0; read-out: affinity for FcRn by SPR
T2 construct: Soluble human FcRn was expressed and purified by Biogen-Idec as previously described (29)
In short: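 FcRn amine-coupled to CM5 chip; binding run at pH 6.0 or 7.4 in 50 mM phosphate, 100 mM NaCl, 0.01% P20, with 5-minute dissociation and pH 8.0 Tris regeneration. KD derived from sensorgrams with a 1:1 binding model; end-of-association responses plotted versus concentration.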

T1 sequence (P55899 24-297 limits assumed): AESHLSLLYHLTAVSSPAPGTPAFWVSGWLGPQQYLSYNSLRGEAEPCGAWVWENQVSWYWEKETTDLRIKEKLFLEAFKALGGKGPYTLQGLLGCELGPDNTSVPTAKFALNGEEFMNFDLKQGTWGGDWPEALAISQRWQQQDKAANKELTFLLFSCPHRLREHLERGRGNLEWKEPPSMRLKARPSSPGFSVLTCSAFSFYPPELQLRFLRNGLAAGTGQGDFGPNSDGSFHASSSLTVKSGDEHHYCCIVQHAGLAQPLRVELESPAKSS
T1 sequence (P61769 21-119 partner): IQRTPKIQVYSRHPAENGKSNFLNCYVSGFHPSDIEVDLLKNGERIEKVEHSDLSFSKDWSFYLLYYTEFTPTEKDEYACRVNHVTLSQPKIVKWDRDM
Chain of shFcRn binding to HSA (P55899 24-297 limits assumed): as the sequence (P55899 24-297 limits assumed) above
Chain of shFcRn binding to HSA (P61769 21-119 partner): as the sequence (P61769 21-119 partner) above
T2 sequence (P55899 24-297 limits assumed): as the sequence (P55899 24-297 limits assumed) above
T2 sequence (P61769 21-119 partner): as the sequence (P61769 21-119 partner) above

Structure (SMILES) | block of shFcRn binding to immobilized HSA (shFcRn binding to HSA) | Competition for albumin or IgG binding to FcRn (FcRn [1]; Table 3) | competition with IgG or albumin for the FcRn binding site (FcRn [1]; competition experiments / SPR) | block of IgG binding to hFcRn (FcRn [2]) | transcytosis of human albumin [3] | transcytosis of human albumin ([3]; listed as Syn3258) | protection from liver injury (serum ALT) after lethal dose of APAP [4] | survival rate after lethal dose of APAP [4] | Kd (soluble human FcRn)
CC(=O)N[C@@H](CCCNC(=N)N)C(=O)N[C@@H](Cc1ccccc1)C(=O)N[C@@H]1C(=O)N[C@@H]([C@@H](C)O)C(=O)NCC(=O)N[C@@H](Cc2c[nH]cn2)C(=O)N[C@@H](Cc2ccccc2)C(=O)NCC(=O)N(C)CC(=O)N(C)[C@@H](CC(C)C)C(=O)N[C@@H](Cc2ccc(O)cc2)C(=O)N2CCC[C@H]2C(=O)N[C@H](C(N)=O)CSSC1(C)C [SYN1327, Ac-RF-Pen-TGHFG-Sar-NMeLeu-YPC-CONH2, reference compound] | not able to compete for HSA binding | IgG | competes for binding of IgG | block the binding of IgG to hFcRn |  |  |  |  | 
CC(=O)N[C@@H](CCCNC(=N)N)C(=O)N[C@@H](Cc1ccc(O)cc1)C(=O)N[C@@H](Cc1ccccc1)C(=O)N[C@H]1CSSC[C@@H](C(=O)N[C@@H](CCC(=O)O)C(=O)N[C@@H](CCC(=O)O)C(=O)N[C@H](C(=O)NCC(=O)N[C@H](C(=O)NCC(=O)NCC(=O)NCC(=O)N[C@@H](CCCNC(=N)N)C(=O)N[C@@H](Cc2ccc(O)cc2)C(=O)N[C@@H](Cc2ccccc2)C(=O)N[C@H]2CSSC[C@@H](C(=O)N[C@@H](CCC(=O)O)C(=O)N[C@@H](CCC(=O)O)C(=O)N[C@H](C(=O)NCC(=O)N[C@H](C(N)=O)[C@@H](C)O)C(C)C)NC(=O)[C@H](Cc3c[nH]c4ccccc34)NC(=O)CNC(=O)[C@H](Cc3c[nH]cn3)NC(=O)[C@H](CCCCN)NC(=O)[C@H](Cc3c[nH]c4ccccc34)NC(=O)[C@H](CCCCN)NC(=O)[C@H]([C@@H](C)O)NC2=O)[C@@H](C)O)C(C)C)NC(=O)[C@H](Cc2c[nH]c3ccccc23)NC(=O)CNC(=O)[C@H](Cc2c[nH]cn2)NC(=O)[C@H](CCCCN)NC(=O)[C@H](Cc2c[nH]c3ccccc23)NC(=O)[C@H](CCCCN)NC(=O)[C@H]([C@@H](C)O)NC1=O [SYN3258] (Ac-RYFCTKWKHGWCEEVGTGGGRYFCTKWKHGWCEEVGT-NH2; disulfide 4-12, 24-32) |  |  |  |  | capable of blocking transcytosis of human albumin; also recorded: inhibit FcRn-directed transcytosis of albumin | significantly reducing | conferred protection from liver injury | improve the survival rate | 3.6 nM
